Like-named read-outs stand apart in the source and are kept apart here.
Tests used:
Type in all cases: biochemical
EGFR L858R kinase domain = EGFR L858R kinase domain (Homo sapiens (Human), UniProt P00533, L858R); experiment: EGFR enzymatic assay, TR-FRET, EGFR L858R
WT EGFR kinase domain = WT EGFR kinase domain (Homo sapiens (Human), UniProt P00533); experiment: EGFR enzymatic assay, TR-FRET, WT EGFR
C-Raf (Y340D/Y341D) = C-Raf (Y340D/Y341D) (Homo sapiens (Human), UniProt P04049, Y340D/Y341D); experiment: Raf IC50 assay, TR-FRET, C-Raf (Y340D/Y341D); settings: 0.1 mM ATP
Sequence of C-Raf (Y340D/Y341D) (P04049 whole entry Y340D/Y341D): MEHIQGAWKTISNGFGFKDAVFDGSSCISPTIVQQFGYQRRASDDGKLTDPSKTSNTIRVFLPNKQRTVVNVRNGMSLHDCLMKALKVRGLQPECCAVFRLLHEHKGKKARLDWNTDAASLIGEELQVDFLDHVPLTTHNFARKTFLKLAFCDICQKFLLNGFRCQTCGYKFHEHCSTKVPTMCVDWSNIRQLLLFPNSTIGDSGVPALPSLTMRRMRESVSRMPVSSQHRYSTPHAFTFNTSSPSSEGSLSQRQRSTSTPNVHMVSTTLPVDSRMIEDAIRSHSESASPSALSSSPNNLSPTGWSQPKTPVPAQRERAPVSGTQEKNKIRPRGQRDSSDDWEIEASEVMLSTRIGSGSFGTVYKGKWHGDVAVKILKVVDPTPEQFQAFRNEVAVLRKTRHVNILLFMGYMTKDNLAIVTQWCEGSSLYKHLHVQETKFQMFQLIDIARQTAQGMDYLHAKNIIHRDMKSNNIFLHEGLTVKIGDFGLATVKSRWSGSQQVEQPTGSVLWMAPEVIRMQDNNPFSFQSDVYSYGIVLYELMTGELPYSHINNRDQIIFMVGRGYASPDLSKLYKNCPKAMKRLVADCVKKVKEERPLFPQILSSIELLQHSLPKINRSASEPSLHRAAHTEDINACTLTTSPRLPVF
Experimental: Compounds disclosed herein were tested against B-Raf (V600E) (PV3849, from Invitrogen) or C-Raf (Y340D/Y341D) (PV3805, from Invitrogen) in a time-resolved fluorescence energy transfer assay. The assay was carried out in reactions (10 μL) containing 0.0625 nM B-Raf or 0.5 nM C-Raf, 25 mM Tris pH7.4, 10 mM MgCl2, 0.5 mM EGTA, 0.5 mM Na3VO4, 5 mM beta-glycerophosphate, 0.01% Triton X-100, 2.5 mM DTT, 0.1% BSA, 0.1 mM ATP, 13.7 nM GST-tagged MEK1 (Full-length protein with K97R mutation, recombinant protein purified from bacterial expression system) and 0-5 μM compounds disclosed herein (final concentration of 1% DMSO). The enzyme was incubated with the compounds disclosed herein at room temperature for 60 minutes and the reactions were initiated by the addition of ATP and GST-MEK1. After reaction at room temperature for 60 minutes, an equal volume of stop/detection solution was added according to the manufacture's instruction (CisBio Bioassays). The stop/detection solution contained Eu^3+ cryptate-conjugated anti-phospho MEK1/2 (Ser217/221) rabbit polyclonal antibody and d2-conjugated anti-GST mouse monoclonal antibody in buffer containing 25 mM Tris pH7.4, 400 mM KF, 50 mM EDTA, 0.01% BSA and 0.01% Triton X-100. Plates were sealed and incubated at room temperature for 2 hours, and the TR-FRET signals (ratio of fluorescence emission at 665 nm over emission at 620 nm with excitation at 337 nm wavelength) were recorded on a PHERAstar FS plate reader (BMG Labtech). Phosphorylation of MEK1 led to the binding of anti-phospho-MEK1/2 antibody to GST-MEK1 protein that place fluorescent donor (Eu^3+ crypate) in close proximity to the accepter d2 on the anti-GST antibody, thus resulting in a high degree of fluorescence resonance energy transfer from the donor fluorophore (at 620 nm) to the acceptor fluorophore (at 665 nm). […] The IC50 for each compound was derived from fitting the dose-response % inhibition data to the four-parameter logistic model by Graphpad Prism software.

wild type B-Raf = wild type B-Raf (Homo sapiens (Human), UniProt P15056); experiment: WT BRaf IC50 assay, TR-FRET
Sequence of wild type B-Raf (P15056 whole entry): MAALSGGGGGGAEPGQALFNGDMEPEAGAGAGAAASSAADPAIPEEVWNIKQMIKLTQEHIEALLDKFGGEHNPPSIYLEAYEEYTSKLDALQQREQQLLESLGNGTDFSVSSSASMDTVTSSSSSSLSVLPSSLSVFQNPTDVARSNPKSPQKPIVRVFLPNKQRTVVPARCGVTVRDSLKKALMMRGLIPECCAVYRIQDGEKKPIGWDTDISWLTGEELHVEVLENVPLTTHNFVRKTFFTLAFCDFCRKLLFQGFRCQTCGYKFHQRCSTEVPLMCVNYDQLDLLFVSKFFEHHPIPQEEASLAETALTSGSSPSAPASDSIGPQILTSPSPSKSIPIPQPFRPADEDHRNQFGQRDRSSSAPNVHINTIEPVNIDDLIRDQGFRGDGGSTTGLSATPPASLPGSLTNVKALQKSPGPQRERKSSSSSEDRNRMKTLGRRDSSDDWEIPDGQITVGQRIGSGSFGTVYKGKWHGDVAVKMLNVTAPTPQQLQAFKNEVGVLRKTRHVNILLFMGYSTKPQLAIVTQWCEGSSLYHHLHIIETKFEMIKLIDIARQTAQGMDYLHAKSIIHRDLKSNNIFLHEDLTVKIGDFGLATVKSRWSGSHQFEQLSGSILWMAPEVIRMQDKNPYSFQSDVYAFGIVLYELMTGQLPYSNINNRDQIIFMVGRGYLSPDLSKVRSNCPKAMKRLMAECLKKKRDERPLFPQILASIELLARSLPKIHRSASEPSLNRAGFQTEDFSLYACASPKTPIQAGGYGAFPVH
Experimental: WT BRaf IC50 Assay Protocol
Compounds disclosed herein were tested against wild type B-Raf (PV3848, from Invitrogen) in a time-resolved fluorescence energy transfer assay. […] The enzyme was incubated with the compounds disclosed herein at room temperature for 120 minutes and the reactions were initiated by the addition of ATP and GST-MEK1. After incubating at room temperature for 60 minutes, an equal volume of stop buffer containing 25 mM Tris pH7.4, 400 mM KF, 50 mM EDTA, 0.1% BSA, 0.01% Triton X-100, 1 test of Eu3+Cryptate-conjugated rabbit polyclonal antibody anti-Phospho MEK1/2 (Ser217/221) and 1 test of d2-conjugated mouse monoclonal antibody anti-glutathione S-transferase was added to stop the reactions. Plates were sealed and incubated at room temperature for 1.5 hours, and then the TR-FRET signals were read on BMG PHERAstar FS instrument. The IC50 for each compound was calculated by non linear regression by Graphpad Prism software.

B-Raf (V600E) = B-Raf (V600E) (Homo sapiens (Human), UniProt P15056, V600E); experiment: Raf IC50 assay, TR-FRET, B-Raf (V600E); settings: 0.1 mM ATP; read-out: IC50 BRAF-V600E
Sequence of B-Raf (V600E) (P15056 whole entry V600E, the tested form may be a part): as the sequence (P15056 whole entry) above, with V600E counted along it

[1] = target: EGFR T790M/L858R kinase domain (Homo sapiens (Human), UniProt P00533, L858R/T790M); experiment: EGFR enzymatic assay, TR-FRET, EGFR T790M/L858R
Sequence of EGFR T790M/L858R kinase domain (P00533 669-1210 T790M/L858R): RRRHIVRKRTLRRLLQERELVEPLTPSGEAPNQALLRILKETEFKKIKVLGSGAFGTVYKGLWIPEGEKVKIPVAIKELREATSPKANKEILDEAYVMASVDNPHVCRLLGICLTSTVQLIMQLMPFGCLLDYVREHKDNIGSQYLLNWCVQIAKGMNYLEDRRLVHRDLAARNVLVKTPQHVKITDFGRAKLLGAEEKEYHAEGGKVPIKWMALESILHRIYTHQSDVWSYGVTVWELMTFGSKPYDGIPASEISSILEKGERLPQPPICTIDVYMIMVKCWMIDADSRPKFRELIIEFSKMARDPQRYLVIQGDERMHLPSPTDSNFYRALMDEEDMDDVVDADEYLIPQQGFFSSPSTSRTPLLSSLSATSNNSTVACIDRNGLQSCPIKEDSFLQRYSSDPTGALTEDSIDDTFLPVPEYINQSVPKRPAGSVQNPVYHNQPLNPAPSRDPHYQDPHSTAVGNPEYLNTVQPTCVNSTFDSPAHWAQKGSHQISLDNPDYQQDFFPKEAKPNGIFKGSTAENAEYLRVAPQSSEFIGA

[2] = Km ATP ([…] ATP), read-out: IC50 Braf-WT Km ATP

Sequence of WT EGFR kinase domain (P00533 669-1210): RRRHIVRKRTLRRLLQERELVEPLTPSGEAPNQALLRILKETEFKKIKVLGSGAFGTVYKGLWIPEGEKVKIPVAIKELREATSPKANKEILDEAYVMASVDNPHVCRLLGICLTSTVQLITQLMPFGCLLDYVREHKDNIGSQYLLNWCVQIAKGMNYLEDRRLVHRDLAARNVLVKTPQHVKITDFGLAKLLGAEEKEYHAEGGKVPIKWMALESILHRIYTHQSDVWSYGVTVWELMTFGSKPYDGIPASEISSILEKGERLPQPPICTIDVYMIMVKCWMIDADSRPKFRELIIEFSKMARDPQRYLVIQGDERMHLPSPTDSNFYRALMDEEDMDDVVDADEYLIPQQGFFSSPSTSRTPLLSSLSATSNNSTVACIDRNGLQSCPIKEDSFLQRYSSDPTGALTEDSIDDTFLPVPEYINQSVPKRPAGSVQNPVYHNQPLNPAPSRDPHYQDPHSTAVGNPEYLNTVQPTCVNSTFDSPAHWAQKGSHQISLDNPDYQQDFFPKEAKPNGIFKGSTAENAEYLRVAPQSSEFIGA
Sequence of EGFR L858R kinase domain (P00533 669-1210 L858R): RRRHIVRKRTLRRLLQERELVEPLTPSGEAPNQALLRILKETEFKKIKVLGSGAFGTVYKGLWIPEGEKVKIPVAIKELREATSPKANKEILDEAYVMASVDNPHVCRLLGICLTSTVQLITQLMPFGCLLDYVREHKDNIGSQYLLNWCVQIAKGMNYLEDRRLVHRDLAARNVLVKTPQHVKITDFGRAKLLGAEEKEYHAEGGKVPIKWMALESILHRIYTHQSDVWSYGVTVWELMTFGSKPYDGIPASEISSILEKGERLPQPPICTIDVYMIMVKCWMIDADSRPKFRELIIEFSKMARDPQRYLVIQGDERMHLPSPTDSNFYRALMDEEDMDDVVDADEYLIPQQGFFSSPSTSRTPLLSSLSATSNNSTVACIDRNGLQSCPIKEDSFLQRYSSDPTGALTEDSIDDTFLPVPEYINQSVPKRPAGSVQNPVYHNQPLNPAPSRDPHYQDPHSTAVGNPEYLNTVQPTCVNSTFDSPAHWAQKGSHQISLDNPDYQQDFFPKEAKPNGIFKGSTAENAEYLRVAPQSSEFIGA

Row | IC50 (EGFR L858R kinase domain) [nM] | IC50 (WT EGFR kinase domain) [nM] | IC50 (C-Raf (Y340D/Y341D)) [nM] | IC50 (wild type B-Raf; IC50 Braf-WT […] ATP, […] ATP) [nM] | IC50 (wild type B-Raf; [2]) [nM] | IC50 (B-Raf (V600E)) [nM] | IC50 [1] [nM] | Compound
1 | 0.11 | 0.5 | 0.94 | 27 | 9.5 | 5.3 | 0.1 | CCN1CCN(Cc2ccc(C(=O)N[C@@H]3[C@H]4Oc5ccc(Oc6ccnc7c6CCC(=O)N7)cc5[C@@H]34)cc2C(F)(F)F)CC1 [Compound 1.1, 4-((4-ethylpiperazin-1-yl)methyl)-N-((1S,1aS,6bS)-5-((7-oxo-5,6,7,8-tetrahydro-1,8-naphthyridin-4-yl)oxy)-1a,6b-dihydro-1H-cyclopropa[b]benzofuran-1-yl)-3-(trifluoromethyl)benzamide]
2 | 0.079 | 0.7 | 1.9 | 36 | 14 | 7.1 | 0.088 | CN1CCN(Cc2ccc(C(=O)N[C@@H]3[C@H]4Oc5ccc(Oc6ccnc7c6CCC(=O)N7)cc5[C@@H]34)cc2C(F)(F)F)CC1 [Compound 1.3]
3 | 0.46 | 1.4 | 1.5 | 31 | 7.9 | 8.1 | 2.3 | CCN1CCN(Cc2ccc(C(=O)N[C@@H]3[C@H]4Oc5ccc(Oc6ccnc7c6CCC(=O)N7)cc5[C@@H]34)cc2F)CC1 [Compound 1.4]
4 | 1 | 2.3 | 2.1 | 39 | 15 | 12 | 7.1 | CCN1CCN(Cc2cc(C(=O)N[C@@H]3[C@H]4Oc5ccc(Oc6ccnc7c6CCC(=O)N7)cc5[C@@H]34)cc(C(F)(F)F)c2)CC1 [Compound 1.5]
5 | 16 | 9.8 | 3.5 | 130 | 36 | 36 | 54 | O=C1CCc2c(Oc3ccc4c(c3)[C@H]3[C@H](NC(=O)c5ccc(CN6CCOCC6)c(C(F)(F)F)c5)[C@H]3O4)ccnc2N1 [Compound 1.7]
6 | 100 | 70 | 18 | 380 | 96 | 41 | 504 | O=C1CCc2c(Oc3ccc4c(c3)[C@H]3[C@H](NC(=O)c5ccc(CN6CCCCC6)c(C(F)(F)F)c5)[C@H]3O4)ccnc2N1 [Compound 1.8]
7 | 0.16 | 0.67 | 1.3 | 33 | 9.4 | 9 | 0.21 | O=C1CCc2c(Oc3ccc4c(c3)[C@H]3[C@H](NC(=O)c5ccc(CN6CCN7CCC[C@@H]7C6)c(C(F)(F)F)c5)[C@H]3O4)ccnc2N1 [Compound 1.12]
8 | 1.2 | 2.7 | 1.4 | – | 34 | 14 | 8.1 | CN(C)Cc1ccc(C(=O)N[C@@H]2[C@H]3Oc4ccc(Oc5ccnc6c5CCC(=O)N6)cc4[C@@H]23)cc1C(F)(F)F [Compound 1.24]
9 | 0.15 | 0.48 | 0.25 | 3.4 | 1.4 | 0.71 | 1.2 | CC(C)(N)c1cc(C(=O)N[C@@H]2[C@H]3Oc4ccc(Oc5ccnc6c5CCC(=O)N6)cc4[C@@H]23)cc(C(F)(F)F)c1 [Compound 1.25, 3-(2-aminopropan-2-yl)-N-((1S,1aS,6bS)-5-((7-oxo-5,6,7,8-tetrahydro-1,8-naphthyridin-4-yl)oxy)-1a,6b-dihydro-1H-cyclopropa[b]benzofuran-1-yl)-5-(trifluoromethyl)benzamide]
10 | 1.3 | 1.7 | 0.52 | – | 5.7 | 2.2 | 9.4 | NC1(c2cc(C(=O)N[C@@H]3[C@H]4Oc5ccc(Oc6ccnc7c6CCC(=O)N7)cc5[C@@H]34)cc(C(F)(F)F)c2)CC1 [Compound 1.26, 3-(1-aminocyclopropyl)-N-((1S,1aS,6bS)-5-((7-oxo-5,6,7,8-tetrahydro-1,8-naphthyridin-4-yl)oxy)-1a,6b-dihydro-1H-cyclopropa[b]benzofuran-1-yl)-5-(trifluoromethyl)benzamide]
11 | 0.31 | 1.3 | 3 | 120 | 63 | 27.2 | 0.54 | O=C1CCc2c(Oc3ccc4c(c3)[C@H]3[C@H](NC(=O)c5ccc(CN6CCNCC6)c(C(F)(F)F)c5)[C@H]3O4)ccnc2N1 [Compound 1.27, N-((1S,1aS,6bS)-5-((7-oxo-5,6,7,8-tetrahydro-1,8-naphthyridin-4-yl)oxy)-1a,6b-dihydro-1H-cyclopropa[b]benzofuran-1-yl)-4-(piperazin-1-ylmethyl)-3-(trifluoromethyl)benzamide]
12 | 0.14 | 0.61 | 1.1 | – | 9.1 | 6.2 | 0.3 | C[C@H]1CN(Cc2ccc(C(=O)N[C@@H]3[C@H]4Oc5ccc(Oc6ccnc7c6CCC(=O)N7)cc5[C@@H]34)cc2C(F)(F)F)CCN1 [Compound 1.29, 4-(((S)-3-methylpiperazin-1-yl)methyl)-N-((1S,1aS,6bS)-5-((7-oxo-5,6,7,8-tetrahydro-1,8-naphthyridin-4-yl)oxy)-1a,6b-dihydro-1H-cyclopropa[b]benzofuran-1-yl)-3-(trifluoromethyl)benzamide]
13 | 0.44 | 0.99 | 0.78 | – | 10 | 15 | 1.9 | CN(C)[C@@H]1CCCN(Cc2ccc(C(=O)N[C@@H]3[C@H]4Oc5ccc(Oc6ccnc7c6CCC(=O)N7)cc5[C@@H]34)cc2C(F)(F)F)C1 [Compound 1.31, 4-(((R)-3-(dimethylamino)piperidin-1-yl)methyl)-N-((1S,1aS,6bS)-5-((7-oxo-5,6,7,8-tetrahydro-1,8-naphthyridin-4-yl)oxy)-1a,6b-dihydro-1H-cyclopropa[b]benzofuran-1-yl)-3-(trifluoromethyl)benzamide]
14 | 0.47 | 1.5 | 2.5 | – | 21 | 13 | 1.3 | CN(C)[C@H]1CCCN(Cc2ccc(C(=O)N[C@@H]3[C@H]4Oc5ccc(Oc6ccnc7c6CCC(=O)N7)cc5[C@@H]34)cc2C(F)(F)F)C1 [Compound 1.32]
15 | 146 | 774 | 0.47 | – | 35 | 16 | 293 | CCN1CCN(Cc2ccc(C(=O)N[C@H]3[C@@H]4Oc5ccc(Oc6ccnc7c6CCC(=O)N7)cc5[C@H]34)cc2C(F)(F)F)CC1 [Compound 1.33, 4-((4-ethylpiperazin-1-yl)methyl)-N-((1R,1aR,6bR)-5-((7-oxo-5,6,7,8-tetrahydro-1,8-naphthyridin-4-yl)oxy)-1a,6b-dihydro-1H-cyclopropa [b]benzofuran-1-yl)-3-(trifluoromethyl)benzamide]
16 | 9.7 | 18 | 0.33 | 12 | 4.4 | 1.2 | 47 | O=C1CCc2c(Oc3ccc4c(c3)[C@H]3[C@H](NC(=O)c5cccc(C(F)(F)F)c5)[C@H]3O4)ccnc2N1 [Compound 1.35]
17 | 30 | 75 | 0.15 | – | 0.9 | 0.76 | 692 | O=C1CCc2c(Oc3ccc4c(c3)[C@H]3[C@H](NC(=O)c5cccc(F)c5)[C@H]3O4)ccnc2N1 [Compound 1.39]
